According to ChEMBL document CHEMBL1133982, “Selective heterocyclic amidine inhibitors of human inducible nitric oxide synthase” (Bioorg Med Chem Lett, 2001):
pIC50: −log10 of the molar value.

Assays:
[1] = target: T1, Nitric oxide synthase, inducible (Homo sapiens, UniProt P35228); test: Inhibition of inducible nitric oxide synthase
Nitric oxide synthase 3 = target: T2, Nitric oxide synthase 3 (Homo sapiens, UniProt P29474); test: Inhibition of endothelial nitric oxide synthase
T2 sequence (P29474 whole entry): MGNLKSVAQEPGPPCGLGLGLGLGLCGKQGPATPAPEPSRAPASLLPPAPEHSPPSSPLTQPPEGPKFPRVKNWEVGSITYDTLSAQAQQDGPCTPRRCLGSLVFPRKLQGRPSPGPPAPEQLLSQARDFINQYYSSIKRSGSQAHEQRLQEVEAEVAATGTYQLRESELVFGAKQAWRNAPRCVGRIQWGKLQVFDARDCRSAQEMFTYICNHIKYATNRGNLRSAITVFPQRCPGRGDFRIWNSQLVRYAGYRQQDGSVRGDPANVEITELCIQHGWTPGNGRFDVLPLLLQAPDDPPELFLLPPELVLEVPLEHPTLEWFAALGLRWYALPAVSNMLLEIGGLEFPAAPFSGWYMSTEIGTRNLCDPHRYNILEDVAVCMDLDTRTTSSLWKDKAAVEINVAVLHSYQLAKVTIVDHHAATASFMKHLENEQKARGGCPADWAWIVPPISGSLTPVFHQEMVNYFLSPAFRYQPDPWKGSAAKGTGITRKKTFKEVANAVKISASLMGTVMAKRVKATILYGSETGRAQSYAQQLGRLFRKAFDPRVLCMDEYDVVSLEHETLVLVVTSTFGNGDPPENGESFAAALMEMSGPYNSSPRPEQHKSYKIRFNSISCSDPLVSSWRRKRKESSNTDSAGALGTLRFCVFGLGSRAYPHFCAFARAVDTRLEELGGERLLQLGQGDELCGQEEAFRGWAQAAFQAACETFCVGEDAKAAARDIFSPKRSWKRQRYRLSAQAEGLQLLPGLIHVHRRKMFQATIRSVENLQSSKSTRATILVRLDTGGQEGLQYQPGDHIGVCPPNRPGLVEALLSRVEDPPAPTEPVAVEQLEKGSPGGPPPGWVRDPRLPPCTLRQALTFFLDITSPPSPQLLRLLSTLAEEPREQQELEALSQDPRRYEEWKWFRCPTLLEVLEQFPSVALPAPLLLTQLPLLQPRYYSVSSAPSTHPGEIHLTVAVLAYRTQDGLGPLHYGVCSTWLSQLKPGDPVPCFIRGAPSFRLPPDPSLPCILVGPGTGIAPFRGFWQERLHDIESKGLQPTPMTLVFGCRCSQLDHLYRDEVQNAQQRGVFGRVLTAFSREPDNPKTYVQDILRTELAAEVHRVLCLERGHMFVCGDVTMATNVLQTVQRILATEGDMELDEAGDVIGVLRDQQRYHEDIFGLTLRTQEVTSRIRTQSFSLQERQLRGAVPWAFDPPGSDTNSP

Nitric oxide synthase 1 [2] = target: T3, Nitric oxide synthase 1 (Homo sapiens, UniProt P29475); test: Inhibition of Neuronal nitric oxide synthase
[3] = target: T1, Nitric oxide synthase, inducible; test: Inhibitory activity against Inducible nitric oxide synthase at 100 uM concentration was determined
[4] = target: T4, Nitric oxide synthase 3 (Homo sapiens) (UniProt P29474); test: Inhibitory activity against Endothelial nitric oxide synthase at 100 uM concentration was determined
T4 sequence (whole entry): T2 sequence (P29474 whole entry)

Nitric oxide synthase 1 [5] = target: T3, Nitric oxide synthase 1; test: Inhibitory activity against Neuronal nitric oxide synthase at 100 uM concentration was determined

T3 sequence (P29475 whole entry): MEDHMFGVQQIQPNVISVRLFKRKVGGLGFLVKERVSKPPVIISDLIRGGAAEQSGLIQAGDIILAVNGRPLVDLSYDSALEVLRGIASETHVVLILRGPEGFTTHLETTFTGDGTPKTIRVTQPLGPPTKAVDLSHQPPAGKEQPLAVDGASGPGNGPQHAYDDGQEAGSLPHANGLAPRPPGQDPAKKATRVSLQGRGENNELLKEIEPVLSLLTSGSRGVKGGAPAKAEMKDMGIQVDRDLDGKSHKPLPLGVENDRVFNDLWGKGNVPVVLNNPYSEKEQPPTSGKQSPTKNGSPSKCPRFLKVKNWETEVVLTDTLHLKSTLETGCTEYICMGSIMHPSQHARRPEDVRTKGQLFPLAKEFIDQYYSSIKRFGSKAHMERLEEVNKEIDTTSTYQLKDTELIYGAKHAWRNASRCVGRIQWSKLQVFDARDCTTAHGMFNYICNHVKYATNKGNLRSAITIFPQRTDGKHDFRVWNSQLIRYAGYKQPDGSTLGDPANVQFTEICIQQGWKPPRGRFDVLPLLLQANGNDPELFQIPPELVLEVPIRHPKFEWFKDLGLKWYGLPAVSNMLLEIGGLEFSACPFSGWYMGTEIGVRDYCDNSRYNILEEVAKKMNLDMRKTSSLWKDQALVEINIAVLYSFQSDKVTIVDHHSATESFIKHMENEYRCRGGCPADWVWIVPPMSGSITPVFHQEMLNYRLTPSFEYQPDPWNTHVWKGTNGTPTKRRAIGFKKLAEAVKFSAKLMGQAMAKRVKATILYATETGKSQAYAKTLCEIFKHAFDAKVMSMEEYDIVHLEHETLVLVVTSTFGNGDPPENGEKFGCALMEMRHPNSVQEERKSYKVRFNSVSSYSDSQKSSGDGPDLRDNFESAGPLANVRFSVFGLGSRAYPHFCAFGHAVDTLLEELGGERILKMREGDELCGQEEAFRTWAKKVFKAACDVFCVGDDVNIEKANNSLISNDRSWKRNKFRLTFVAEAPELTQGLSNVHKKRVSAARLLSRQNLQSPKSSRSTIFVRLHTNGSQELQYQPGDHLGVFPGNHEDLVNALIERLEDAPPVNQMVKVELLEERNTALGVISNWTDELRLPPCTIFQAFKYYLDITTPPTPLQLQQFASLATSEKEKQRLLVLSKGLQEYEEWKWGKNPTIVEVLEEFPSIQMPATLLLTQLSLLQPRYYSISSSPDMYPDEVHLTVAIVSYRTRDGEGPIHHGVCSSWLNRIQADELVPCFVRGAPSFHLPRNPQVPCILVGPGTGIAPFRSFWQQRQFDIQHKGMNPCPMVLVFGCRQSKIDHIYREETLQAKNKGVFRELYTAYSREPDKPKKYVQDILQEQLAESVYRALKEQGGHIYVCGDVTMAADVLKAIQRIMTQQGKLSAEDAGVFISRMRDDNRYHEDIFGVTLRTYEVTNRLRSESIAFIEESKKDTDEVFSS
T1 sequence (P35228 whole entry): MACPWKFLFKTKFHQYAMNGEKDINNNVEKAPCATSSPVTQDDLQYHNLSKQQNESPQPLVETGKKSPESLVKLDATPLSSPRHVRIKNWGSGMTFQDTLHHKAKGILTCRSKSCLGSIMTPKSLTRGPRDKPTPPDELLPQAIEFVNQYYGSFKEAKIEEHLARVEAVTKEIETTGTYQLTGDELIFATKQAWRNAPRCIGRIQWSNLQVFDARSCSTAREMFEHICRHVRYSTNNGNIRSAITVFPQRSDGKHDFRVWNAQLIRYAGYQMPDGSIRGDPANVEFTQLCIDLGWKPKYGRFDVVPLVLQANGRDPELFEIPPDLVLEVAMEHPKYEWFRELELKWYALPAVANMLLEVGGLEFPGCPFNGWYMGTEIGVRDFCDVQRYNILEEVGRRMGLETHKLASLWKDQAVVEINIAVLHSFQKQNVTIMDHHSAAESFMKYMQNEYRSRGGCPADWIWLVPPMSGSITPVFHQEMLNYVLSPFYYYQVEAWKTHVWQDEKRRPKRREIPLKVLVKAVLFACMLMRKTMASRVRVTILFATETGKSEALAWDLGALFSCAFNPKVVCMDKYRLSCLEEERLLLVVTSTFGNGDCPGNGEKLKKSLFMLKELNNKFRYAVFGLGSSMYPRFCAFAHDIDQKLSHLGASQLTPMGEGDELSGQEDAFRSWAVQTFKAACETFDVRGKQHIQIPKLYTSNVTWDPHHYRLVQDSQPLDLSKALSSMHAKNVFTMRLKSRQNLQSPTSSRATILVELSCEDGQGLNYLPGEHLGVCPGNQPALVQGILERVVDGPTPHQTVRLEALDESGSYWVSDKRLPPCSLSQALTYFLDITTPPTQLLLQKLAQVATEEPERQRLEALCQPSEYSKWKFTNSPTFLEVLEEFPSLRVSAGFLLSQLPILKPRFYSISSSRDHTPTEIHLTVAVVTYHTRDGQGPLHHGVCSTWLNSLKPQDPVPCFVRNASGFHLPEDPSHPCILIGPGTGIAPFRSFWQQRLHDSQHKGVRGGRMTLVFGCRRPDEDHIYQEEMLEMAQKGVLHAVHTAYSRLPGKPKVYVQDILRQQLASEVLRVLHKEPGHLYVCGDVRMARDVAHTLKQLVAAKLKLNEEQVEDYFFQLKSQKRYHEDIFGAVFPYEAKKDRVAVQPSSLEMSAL

| Compound | pIC50 [1] | pIC50 (Nitric oxide synthase 3) | pIC50 (Nitric oxide synthase 1 [2]) | inhibition [3] | inhibition [4] | inhibition (Nitric oxide synthase 1 [5]) |
| --- | --- | --- | --- | --- | --- | --- |
| CCCCC1COCCC(N)=N1 (configuration not stated) | 5.61 | 2.87 | 4.59 |  |  |  |
| NCCC1COCCC(N)=N1 (configuration not stated) | 5.18 | 3.61 | 5.08 |  |  |  |
| C/C=C/CC1CCCCC(N)=N1 (configuration not stated) | 6.05 | 3.69 | 5.47 |  |  |  |
| NC1=NCCSCC1 | 5.57 | 4.36 | 5.17 |  |  |  |
| NC1=NCCOCC1 | 4.85 | 4.14 | 4.75 |  |  |  |
| CN1CCN=C(N)CC1 |  |  |  | 32.1% | 6.42% |  |
| NC1=NC(CC[N+](=O)[O-])CCCC1 (configuration not stated) | 6.82 | 5.56 | 6.47 |  |  |  |
| CCOC(=O)[C@H]1CSCCC(N)=N1 |  |  |  | 70.9% | 13.9% | 82.6% |
| N=C1CCOCC(CC[N+](=O)[O-])N1 (configuration not stated) | 6.01 | 4.31 | 5.20 |  |  |  |
| NCCC1CCCCC(N)=N1 (configuration not stated) | 6.15 | 4.41 | 6.03 |  |  |  |
| CCOC(=O)[C@@H]1CSCCC(N)=N1 |  |  |  | 70.9% | 8.66% | 84.8% |
| C/C=C/CC1COCCC(N)=N1 (configuration not stated) | 5.03 | 3.15 | 3.97 |  |  |  |
| CCCCC1CCCCC(N)=N1 (configuration not stated) | 6.29 |  |  |  |  |  |
| CCOC(=O)[C@@H]1CCSCC/C(N)=N\1 |  |  |  | 55.7% | 2.4% | 13.9% |
| N/C1=N/CCCSCC1 | 4.88 | 3.73 | 4.68 |  |  |  |
